The values below come from PubChem BioAssay (NCI).

What is called TGI is the concentration at which net growth stops. Low values mean greater sensitivity of the cells, high ones lower sensitivity of the cells. Usually GI50 stands for the concentration giving 50% growth inhibition.

Values joined by “and” are separate entries in the source; they are usually repeats but may differ in a detail not shown here. Identical values can stand only once.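 Briefly, cells in 96-well plates were exposed to five compound concentrations for 48 h, and endpoints were estimated by linear interpolation. GI50 marks 50% less growth. TGI is the concentration that stops growth completely.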

Some test systems named below: MALME-3M melanoma; NCI-H522 lung; TK-10 renal; EKVX NSCLC; SNB-75 CNS; HOP-62 NSCLC; SK-MEL-28 melanoma; A498 renal; SN12C renal; OVCAR-3 ovarian; HT29 colon; HL-60(TB) leukemia.
Holding throughout (experiment): DTP human tumour cell line panel, 48 h

As to `COc1cc2ncnc(Nc3cccc(Br)c3)c2cc1OC`, the TGI was 32.2 µM in the experiment with MALME-3M melanoma; 11.1 µM in the experiment with NCI-H522 lung; 13.5 µM in the experiment on TK-10 renal; 31.9 µM in the experiment with EKVX NSCLC; 29.3 µM in the experiment on SNB-75 CNS; more than 41.2 µM in the experiment on HOP-62 NSCLC. The TGI was more than 44.9 µM in the experiment on SK-MEL-28 melanoma; 29.4 µM in the experiment on A498 renal; more than 52.4 µM with SN12C renal; 45.4 µM with OVCAR-3 ovarian; 18.8 µM with HT29 colon; more than 75.2 µM in the experiment with HL-60(TB) leukemia.
As for `COP(=O)(OC)[C@@](O)(c1ccccc1)[C@@H](O)[C@H](O)c1ccccc1`, the TGI in the experiment on MALME-3M melanoma, with NCI-H522 lung, in the experiment on TK-10 renal, in the experiment with EKVX NSCLC, in the experiment on SNB-75 CNS and with SK-MEL-28 melanoma was more than 100 µM throughout. For the same molecule, the TGI in the experiment on A498 renal, in the experiment with SN12C renal, with OVCAR-3 ovarian, with HT29 colon and in the experiment on HL-60(TB) leukemia was more than 100 µM each time.
For the molecule `CCN1CC2=C(OC(N)=C(C#N)C2c2ccc(Cl)cc2)/C(=C/c2ccc(Cl)cc2)C1` (stereo not drawn), the TGI was 84.7 µM in the experiment on MALME-3M melanoma; more than 100 µM with NCI-H522 lung; more than 100 µM in the experiment with TK-10 renal; more than 100 µM with EKVX NSCLC; 34.2 µM in the experiment on SNB-75 CNS; 78.4 µM in the experiment on HOP-62 NSCLC. Also, the TGI in the experiment on SK-MEL-28 melanoma was 42.9 µM; with A498 renal it was 37.5 µM; in the experiment with OVCAR-3 ovarian, more than 100 µM; in the experiment on HT29 colon, more than 100 µM; in the experiment on HL-60(TB) leukemia it was more than 100 µM.
Take `O=C1CC(Nc2ccccc2)c2c(Cl)sc(Cl)c21` (stereo not drawn): the TGI in the experiment with MALME-3M melanoma came to 2.83 µM; with NCI-H522 lung, 0.315 µM; with TK-10 renal it was 3.26 µM; in the experiment with EKVX NSCLC, 3.4 µM; in the experiment with SNB-75 CNS, 4.52 µM; with HOP-62 NSCLC, 8.1 µM. The concentration for total growth inhibition (TGI) with SK-MEL-28 melanoma turned out to be 3.54 µM; in the experiment on A498 renal, 6.21 µM; with SN12C renal it was 2.66 µM; with HT29 colon it was 3.92 µM; in the experiment on HL-60(TB) leukemia it was 1.36 µM.
`Cn1c2ccccc2n2c(=O)c(-c3ccc(Cl)cc3)nnc12`: the TGI with MALME-3M melanoma, in the experiment with NCI-H522 lung, in the experiment with TK-10 renal, with EKVX NSCLC, with SNB-75 CNS and in the experiment with SK-MEL-28 melanoma was more than 100 µM in each case. Further, the TGI with A498 renal, with SN12C renal, with HT29 colon and with HL-60(TB) leukemia was more than 100 µM throughout.
In the case of `CCOc1cc2c(cc1OC)c[n+](C)c1c3cc(OC)c(OC)cc3ccc21`, the TGI with MALME-3M melanoma, in the experiment on NCI-H522 lung, in the experiment on TK-10 renal, with EKVX NSCLC, in the experiment on HOP-62 NSCLC and with SK-MEL-28 melanoma was more than 100 µM in each case. The TGI is more than 100 µM in the experiment on A498 renal; more than 100 µM in the experiment with SN12C renal; more than 100 µM in the experiment with OVCAR-3 ovarian; more than 100 µM with HT29 colon; 32.2 µM in the experiment on HL-60(TB) leukemia.
Turning to `CCOC(=O)c1nc(SC)sc1NC(=O)c1ccc(OC)cc1`, the TGI in the experiment on MALME-3M melanoma is 88.8 µM; in the experiment on NCI-H522 lung it was more than 100 µM; with TK-10 renal it was 54.7 µM; with EKVX NSCLC, more than 100 µM; with HOP-62 NSCLC it was more than 100 µM; in the experiment on SK-MEL-28 melanoma, more than 100 µM. Also, the TGI in the experiment with A498 renal is 84.6 µM; in the experiment on SN12C renal, more than 100 µM; with OVCAR-3 ovarian it was more than 100 µM; in the experiment with HT29 colon, more than 100 µM; in the experiment on HL-60(TB) leukemia, more than 100 µM.
In the case of `CCCCOC(=O)Nc1ccc(S(=O)(=O)Nc2c(Cl)cccc2Cl)cc1`, the TGI with MALME-3M melanoma was 62.7 µM; with NCI-H522 lung it was more than 100 µM; in the experiment with TK-10 renal it was 77.9 µM; with EKVX NSCLC, 71.6 µM; with HOP-62 NSCLC it was more than 100 µM; with SK-MEL-28 melanoma, 81.5 µM. For the same molecule, the TGI with A498 renal was 63.1 µM; in the experiment with SN12C renal it was more than 100 µM; with OVCAR-3 ovarian, 73.5 µM; in the experiment with HT29 colon, 32 µM; with HL-60(TB) leukemia, more than 100 µM.
For the molecule `O=C(CN1CCCCC1)c1ccc2[nH]c(=O)oc2c1`, the concentration for total growth inhibition (TGI) was more than 100 µM with MALME-3M melanoma; more than 100 µM in the experiment on TK-10 renal; more than 100 µM in the experiment on EKVX NSCLC; 87.8 µM in the experiment with SNB-75 CNS; more than 100 µM in the experiment on HOP-62 NSCLC; more than 100 µM with SK-MEL-28 melanoma. The concentration for total growth inhibition (TGI) in the experiment on A498 renal, in the experiment on SN12C renal, in the experiment with OVCAR-3 ovarian, in the experiment on HT29 colon and in the experiment with HL-60(TB) leukemia was more than 100 µM in each case.
`COc1cc(OC)c(-n2[nH]c(=O)n(C)c2=O)c(OC)c1`: the TGI in the experiment on MALME-3M melanoma, with NCI-H522 lung, in the experiment on TK-10 renal, in the experiment with EKVX NSCLC, in the experiment with SNB-75 CNS and in the experiment with SK-MEL-28 melanoma was more than 100 µM each time. For the same molecule, the TGI in the experiment with A498 renal, in the experiment with SN12C renal, with OVCAR-3 ovarian, in the experiment with HT29 colon and with HL-60(TB) leukemia was more than 100 µM each time.
On to `CC(C)(C)OC(=O)C1C(=O)NC(=O)CC1C(OCc1ccccc1)C(OCc1ccccc1)C(COCc1ccccc1)OCc1ccccc1` (stereo not drawn), for which the GI50 was > 100 µM and 15.7 µM in the experiment with MALME-3M melanoma; 26 µM and > 7.5 µM in the experiment on SNB-75 CNS; 61.7 µM and 12.8 µM with HL-60(TB) leukemia. Besides, the TGI with MALME-3M melanoma was > 100 µM and 73 µM; in the experiment with TK-10 renal, more than 100 µM; in the experiment with EKVX NSCLC, more than 100 µM; in the experiment on SNB-75 CNS, more than 100 µM; in the experiment with SK-MEL-28 melanoma it was more than 100 µM; in the experiment on A498 renal, more than 100 µM. Besides, the TGI in the experiment with SN12C renal is more than 100 µM; in the experiment with HT29 colon, more than 75 µM; with HL-60(TB) leukemia it was > 100 µM and 49.5 µM.
Turning to `Cc1cnoc1/N=C1\C=C(Nc2oncc2C)C(=O)c2ccccc21`, the TGI in the experiment with MALME-3M melanoma, in the experiment on TK-10 renal, with EKVX NSCLC, in the experiment with SNB-75 CNS, in the experiment with HOP-62 NSCLC and in the experiment on SK-MEL-28 melanoma was more than 100 µM throughout. Moreover, the TGI in the experiment with A498 renal, with SN12C renal, in the experiment with OVCAR-3 ovarian, in the experiment with HT29 colon and with HL-60(TB) leukemia was more than 100 µM in each case.
